Several values for one entry are separate records, joined by “and”; a condition that tells them apart may be missing. Equal values may be shown once.
How the values were obtained:
BALB/c-mice = assay: Allergic contact dermatitis model (TDI), mouse ear swelling test; format: in vivo
Experimental: The anti-inflammatory and anti-allergic effects of compound 1a were assessed in a mouse model of allergic contact dermatitis, a response driven primarily by T helper type 2 (Th2) cells. […] In this model, an allergic dermatitis response is obtained by sensitizing mice to TDI and subsequently challenging them with antigen by topical administration onto the ears. A quantitative assessment of anti-inflammatory and anti-allergic effects of topically or orally administered test compounds is possible by measuring the resulting ear swelling.
Female BALB/c-mice were obtained from Charles River (Sulzfeld, Germany) at age 8 weeks. All animals were housed in groups of eight per cage at 22° C. with a 12 h light/dark-cycle. Water and a standard diet (Aitromin, Lage/Lippe, Germany) were available ad libitum. All animals were acclimatized for one week before experimental procedures were commenced.
Experimental procedures for BALB/c mice housing, TDI sensitization and challenge, and measurement of ear thickness were performed as previously described (Baurner et al., J Pharm Pharmacol. 55:1107-1114 (2003)) with the following modifications. For active sensitization, 100 μL of 5% (w/v) TDI was administered to the shaved and stripped abdominal epidermis on day one, and for the next three consecutive days, 50 μL of 5% (w/v) TDI was applied. The allergic reaction was boosted 21 days later by application of 50 μL of 0.5% (w/v) TDI. For the examination of test compound effects, the left ears were used for the TDI challenge (20 μL of 0.5% in acetone) and ear thickness measured 3 h before and 24 h after challenge.
Group size was n=7 mice unless otherwise stated. Test compounds were freshly prepared before administration.
Administration time: to determine optimal time for administration treatment groups were treated orally by gavage with 100 mg/kg of compound 1a (suspended in phosphate-buffered saline (PBS), 10 mL/kg) 4 or 16 h before topical TDI challenge. Vehicle treated mice received PBS (10 mL/kg) orally, 4 h before challenge.
Dose-response: two groups of mice were treated orally with compound 1a at 20 mg/kg or 100 mg/kg suspended in PBS, 4 h before topical TDI challenge. Vehicle treated mice received PBS orally 4 h before challenge.
Compound 1a was administered to two groups of mice topically in 20 μl of a 2% or 6% solution in acetone/water (1:1). The solution was applied, 2 h before topical TDI challenge by administration of 10 μl onto each of the inner and outer surfaces of the left ears. A vehicle group (n=7) was treated with acetone/water (1:1).
Mean and standard error of the mean (SEM) were calculated from individual ear edema values. […]

RBL-2H3 cells = assay: Inhibition of mast cell degranulation (β-hexosaminidase release); format: cell-based, rat; settings: Rattus norvegicus, RBL-2H3 cells sensitized with anti-DNP IgE, triggered with DNP-HSA, 1 h preincubation
Source text: Mast cells are key effector cells involved in allergic and inflammatory diseases, and the Rat Basophilic Leukemia clone 2H3 (RBL-2H3) cell line is a commonly used model of allergen dependent immune modulator release (degranulation) in mast cells. On their surface, they express the high affinity receptor for IgE (FcεRI). Upon binding of antigen-specific IgE to the receptor, cells become sensitized to the IgE specific antigen (allergen). When IgE-sensitized cells then encounter multivalent antigen, the antigen clusters IgE-FcεRI complexes and initiates a signal transduction cascade that leads to degranulation, that is, the release of inflammatory mediators, such as cytokines, eicosanoids, histamine and enzymes. The assay can be used as a screening method to identify immune-modulating compounds, in particular compounds useful in the medical management of allergic and inflammatory diseases and asthma, β-hexosaminidase was previously shown to be released with the same kinetics as histamine (Schwartz et al., J Immunology; 123:1445-1450 (1979)), thus offering a simple means to monitor degranulation. The RBL-2H3 cell line has been successfully used to identify compounds with anti-allergic activity (Choo et al. Planta Med., 69:518-522 (2003)).
Cell Culture: RBL-2H3 cells obtained from the German Collection of Microorganisms and Cell Cultures (ACC312) (Braunschweig, Germany) were maintained in 70% Minimum Essential Medium with Earle's Salts, 20% RPMI 1640 Medium, 10% FBS and 2 mM l-glutamine in 95% air/5% CO2 at 37° C. and routinely checked for mycoplasma contamination. Cells were passaged every 3-4 days; after washing cells once with 35 ml PBS cells were incubated 8 min with 5 ml 0.05% Trypsin-EDTA solution at 37° C. Cells were removed from the incubator, 15 ml culture medium was added and cells were resuspended by repeated pipetting.
Cell seeding: cells were harvested with Trypsin-EDTA as described and 50-100 μl cell suspension seeded Into Costar CellBind 24 well cluster plates (no. 3337). Plates were kept for 30 min at RT under the sterile hood before being transferred to the incubator. Cells were used within one or two days after seeding.
For sensitization, cells for immediate use were sensitized 6-12 h after plating; cells to be used the following day were sensitized 26-38 h after plating. Culture plates were removed from the incubator and checked for cell growth and contamination. The medium was discarded and cells were sensitized with anti-DNP IgE (0.4 μg/ml) in 0.4 ml culture medium overnight. Following overnight sensitization, cells were washed with 0.8 ml pre-warmed TyB and 0.38 ml test compound or vehicle control (supplemented or not with 1% FBS) were added to duplicate wells. Samples were adjusted to contain 1% vehicle for test compounds dissolved in organic solvents. Cells were incubated for 1 h at 37° C. At the end of the incubation period, cells were routinely stimulated with 20 μl DNP-HSA (2 μg/ml; final concentration 0.1 μg/ml) diluted in TyB and cells were incubated for 15 min at 37° C. Alternatively, cells were stimulated with 20 μl […] (final concentration 0.25 μM) or 20 nM […] (final concentration 0.25 μM), both in the absence or presence of 20 nM PMA (final concentration).
Plates were removed from the incubator and immediately centrifuged at 4° C. for 5 min at 250×g and transferred to an ice bath. Aliquots of supernatants, 25 μl, were transferred to 96-well plates. Remaining supernatant was aspirated from control wells and cells were lysed in […] lysis buffer for 5 min at RT on an orbital shaker at 450 rpm under non-sterile conditions. After lysis, 25 μl aliquots of lysates were transferred to 96-well plates.
MUG substrate solution, 100 μl, were added to supernatant and lysate samples and plates were incubated 30 min at 37° C. The reaction was terminated by addition of 150 μl stop solution. Fluorescence was measured at 365 nm excitation and 440 nm emission wavelengths. […]

CCCCCCCCCCCCCC[N+](C)(C)CCCS(=O)(=O)[O-] [Compound 1a, 3-(N,N-Dimethylmyristylammonio)-Propanesulfonate]
Inhibition of mouse ear swelling (allergic contact dermatitis) (BALB/c-mice; oral 100 mg/kg, 4 h before TDI challenge): 52% and 51.7* % | Inhibition of mouse ear swelling (allergic contact dermatitis) (BALB/c-mice; oral 100 mg/kg, 16 h before TDI challenge): 32.2 | Inhibition of mouse ear swelling (allergic contact dermatitis) (BALB/c-mice; topical 2% solution, 2 h before TDI challenge): 72% | Inhibition of mouse ear swelling (allergic contact dermatitis) (BALB/c-mice; topical 6% solution, 2 h before TDI challenge): 86% | IC50 (RBL-2H3 cells): 3.2 µM
